Patent publication US20050222207A1, “Phosphodiesterase 4 inhibitors, including N-substituted diarylamine analogs” (priority 2003, published 2005)

Key:
rats [1] = assay: Radial arm maze task in rats, in vivo test for learning and memory (MK-801 amnesia); parameters: species or system rat; conditions: MK-801 0.1 mg/kg i.p., compared to control, p<0.01
Method: The test was performed as previously described (Zhang, H.-T., Crissman, A. M., Dorairaj, N. R., Chandler, L. J., and O'Donnell, J. M., Neuropsychopharmacology, 2000, 23, 198-204.). Five days after initial housing, rats (male Spraque-Dawley (Harlan) weighing 250 to 350 g) were placed in the eight-arm radial maze (each arm was 60×10×12 cm high; the maze was elevated 70 cm above the floor) for acclimation for two days. Rats were then placed individually in the center of the maze for 5 minutes with food pellets placed close to the food wells, and then, the next day, in the wells at the end of the arms; 2 sessions a day were conducted. Next, four randomly selected arms were then baited with one pellet of food each. The rat was restricted to the center platform (26 cm in diameter) for 15 seconds and then allowed to move freely throughout the maze until it collected all pellets of food or 10 minutes passed, whichever came first. Four parameters were recorded: 1) working memory errors, i.e., entries into baited arms that had already been visited during the same trial; 2) reference memory errors, i.e., entries into unbaited arms; 3) total arm entries; and 4) the test duration (seconds), i.e., the time spent in the collection of all the pellets in the maze. […]
(§1) All data were analyzed by analyses of variance (ANOVA); individual comparisons were made using Kewman-Keuls tests. […]

rats [2] = assay: Passive avoidance in rats, in vivo test for learning and memory (MK-801 amnesia); parameters: species or system rat; conditions: MK-801 0.1 mg/kg, retention test 24 hours after shock, compared to vehicle, p<0.001
Method: The test was performed as previously described (Zhang, H.-T., Crissman, A. M., Dorairaj, N. R., Chandler, L. J., and O'Donnell, J. M., Neuropsychopharmacology, 2000, 23, 198-204.). The apparatus (Model E10-16SC, Coulbourn Instruments, Allentown, Pa.) consisted of a two-compartment chamber with an illuminated compartment connected to a darkened compartment by a guillotine door. The floor of the darkened compartment consisted of stainless steel rods through which an electric foot-shock could be delivered from a constant current source. All experimental groups were first habituated to the apparatus the day before the start of the experiment. During the training, the rat (Male Spraque-Dawley (Harlan) weighing 250 to 350 g) was placed in the illuminated compartment facing away from the closed guillotine door for 1 minute before the door was raised. The latency for entering the darkened compartment was recorded. After the rat entered the darkened compartment, the door was closed and a 0.5 mA electric shock was administered for 3 seconds. […] The latency for entering the darkened compartment was recorded for up to 180 seconds, at which time the trial was terminated.
as §1

Compound	melting point	frequency of reference memory errors (rats [1])	frequency of working memory errors (rats [1])	latency for entering the darkened compartment (rats [2])
COc1cc(N(Cc2cncs2)c2ccc(C(=O)O)cc2)ccc1C(N)=O	196.7 to 196.8 °C			
C[C@]12N[C@H](Cc3ccccc31)c1ccccc12 [MK-801]		increased	increased	markedly reduced
